In patent publication US4650785A, “Pharmaceutical composition having an excellent absorption property” (Ajinomoto Company Incoporated, priority 1982, dated 1987):

Experiments:
[1] = Usefulness as medicine absorption promoter (statement, test not described)
Female ICR-CD-1 mice = experiment: Oral administration of absorption promoter mixed with insulin to mice: decrease in blood glucose and elevation of blood insulin versus control; assay type: in vivo; parameters: Degree of Elevation of Blood Insulin: unit not given here; details: oral, mice, vs control group
Experimental: The absorption promoter samples listed in Table 2 were dissolved or suspended in 0.5% CMC-0.05M tris-HCl buffers (pH: 7.8) and the solutions or suspensions were mixed with aqueous insulin solution. Female ICR-CD-1 mice 5 to 7 weeks old were orally administered predetermined amounts of the mixtures. A predetermined duration later, the percent decrease in blood glucose and the degree of elevation of blood insulin as compared with the control group were measured. The symbol "Z" in the structural formulas in the table represents a benzyloxycarbonyl group. The upper figures in the columns "effectiveness" represent the percent decrease in blood glucose and the lower parenthesized figures indicate the degree of elevation in blood insulin.

Female CD-1(ICR) Mice = experiment: Toxicity studies of phenylalanine derivatives (LD50); assay type: in vivo; details: female CD-1(ICR) mice; suspended in 0.5% CMC
Excerpt: Toxicity Studies of Phenylalanine Derivatives with Oral IN Potentiating Activity in Female CD-1(ICR) Mice are as follows:
Phenylalanine derivatives were suspended in 0.5% CMC.

[2] = sample 3.0 mg/10 g with insulin 2.5 U/10 g body weight, 30 minutes
[3] = sample 3.0 mg/10 g with insulin 2.5 U/10 g body weight, 60 minutes
[4] = sample 6.0 mg/10 g with insulin 2.5 U/10 g body weight, 30 minutes
[5] = sample 6.0 mg/10 g with insulin 2.5 U/10 g body weight, 60 minutes

Row | Compound | usefulness as the absorption promoter [1] | Decrease in Blood Glucose (%) (Female ICR-CD-1 mice; [2]) | Degree of Elevation of Blood Insulin (Female ICR-CD-1 mice; [2]) | Decrease in Blood Glucose (%) (Female ICR-CD-1 mice; [3]) | Degree of Elevation of Blood Insulin (Female ICR-CD-1 mice; [3]) | LD50 (mg/kg) (Female CD-1(ICR) Mice) | further results
1 | CC(=O)N[C@@H](Cc1ccccc1)C(=O)O [N-acetylphenylalanine] | not useful as the absorption promoter |  |  |  |  |  | 
2 | N[C@@H](Cc1ccccc1)C(=O)O [Phenylalanine] | not useful as the absorption promoter |  |  |  |  |  | 
3 | O=C(N[C@@H](Cc1ccccc1)C(=O)O)OCc1ccccc1 [Sample S-15, N-benzyloxycarbonyl-L-phenylalanine] |  | 37.5% | 3.43 | 60.7% | 2.36 | > 2,750 mg/kg | 
4 | COc1ccc(COC(=O)N[C@@H](Cc2ccccc2)C(=O)O)cc1 [Sample S-17, N-(4-methoxybenzyloxycarbonyl)-L-phenylalanine] |  | 64.8% | 14.4 | 50.6% | 21.2 |  | LD50 (Female CD-1(ICR) Mice): 750 mg/kg
5 | O=C(N[C@H](Cc1ccccc1)C(=O)O)OCc1ccccc1 [Sample S-18, N-benzyloxycarbonyl-D-phenylalanine] |  |  |  |  |  | > 4,000 mg/kg | Decrease in Blood Glucose (%) (Female ICR-CD-1 mice; [4]): 52.3%; Degree of Elevation of Blood Insulin (Female ICR-CD-1 mice; [4]): 6.79; Decrease in Blood Glucose (%) (Female ICR-CD-1 mice; [5]): 67.2%; Degree of Elevation of Blood Insulin (Female ICR-CD-1 mice; [5]): 10.6
